ChEMBL document CHEMBL5303711, “ECBD screening data for assay EOS300108” (2023)
Structures can show the parent of a compound that is named as a salt. Active and inactive are the calls of the source. How the calls were made is not given here.

assay: Cytotoxicity activity against human HepG2 cells assessed by CellTiter-Glo luminescent cell viability assay.; type: toxicity, cell-based; design: assay stage confirmatory assay, source tissue liver; conditions: HepG2 cells, read-out: IC50 relative

Row | SMILES | CC50
1 | Cn1cc(-c2nc(C(=O)Nc3cccnc3-n3cncn3)cs2)cn1 | 2 µM (active)
2 | Cc1cc(F)ccc1N1CCC(NCC(O)c2cccc(O)c2)CC1 (stereo unspecified) | 10.1 µM (active)
3 | CNC(=O)c1c(F)cccc1Nc1nc(Nc2cc3c(cc2OC)CCN3C(=O)CN(C)C)nc2[nH]ccc12 | 3.6 µM (active)
4 | Oc1ccccc1N1CCN(C[C@H](O)COc2ccc(Oc3ccccc3)cc2)CC1 | 19.2 µM (inactive)
5 | O=c1[nH]c2ccccc2n1C1CCN(CCCC(c2ccc(F)cc2)c2ccc(F)cc2)CC1 [PIMOZIDE] | 4.6 µM (active)
6 | O=C(CCC1CCCN(c2cc(NC3CC3)ncn2)C1)N1CCN(c2ccc(F)cc2)CC1 (stereo unspecified) | 9.1 µM (active)
7 | CCNc1cc(C)nc(Nc2ccc(NC(=O)CC(C)C)cc2)n1 | 11 µM (active)
8 | Cc1ccn(-c2ccc(NC(=O)c3ccccn3)cc2)n1 | 4.5 µM (active)
9 | N#Cc1c(N)[nH]c2cc(Br)ccc12 | 18 µM (inactive)
10 | c1cc(-c2cnn3cc(-c4ccc(N5CCNCC5)cc4)cnc23)c2cccnc2c1 | 0.9 µM (active)
11 | CC(C)(C)C(=O)/C(=C/c1cccc([N+](=O)[O-])c1)n1cncn1 | 0.6 µM (active)
12 | CCCCC(=O)Nc1ccc(Nc2nc(C)cc(N3CCOCC3)n2)cc1 | 10.1 µM (active)
13 | Cn1ncnc2c(=O)n(C)c(=O)nc1-2 | 0.2 µM (active)
14 | Cc1c2ccncc2c(C)c2c1[nH]c1ccccc12 | 1.4 µM (active)
15 | COc1cc(C(=O)Nn2cnc3ccccc32)cc(Cl)c1OCC(N)=O | 8.3 µM (inactive)
16 | COc1ccc(C(N)=O)c(OCc2cn3ccccc3c2C#N)c1 | 10.7 µM (inactive)
17 | COc1ccc(Cc2nccc3cc(OC)c(OC)cc23)cc1OC [PAPAVERINE] | 12.8 µM (active)
18 | Cc1cc(CS(=O)(=O)c2ccccc2)cc(OCc2ccc(CN3CCC[C@@H]3CO)cc2)c1 | 7.9 µM (active)
19 | CC(=O)N1c2ccc(S(=O)(=O)N3CCC(C(=O)NCc4cccs4)CC3)cc2CC1C (stereo unspecified) | 33.9 µM (inactive)
20 | CCCCn1nnnc1Cn1ncc(Cl)c(Cl)c1=O | 3 µM (active)
21 | O=C(CN1C(=O)COc2ccc(S(=O)(=O)N3CCCC3)cc21)N1CCN(Cc2ccccc2)CC1 | 50 µM (inactive)
22 | Cc1cccc2nc(C(=O)Nc3cccnc3-n3cccn3)cn12 | 7 µM (active)
23 | CN(C)C/C=C/C(=O)Nc1ccc(C(=O)N2CCC[C@@H](Nc3ncc(Cl)c(-c4c[nH]c5ccccc45)n3)C2)cc1 | 0.1 µM (active)

Row | SMILES | CC50
24 | O=c1cc(O)c2c(-c3ccc(F)cc3)csc2[nH]1 | 2.7 µM (active)
25 | NCC1CCC(CNc2nc(NCc3ccccc3OC(F)(F)F)ncc2[N+](=O)[O-])CC1 (stereo unspecified) | 9.7 µM (active)
26 | Cc1cc(C)cc(C(=O)N2CCN(c3cc(=O)n(C(C)C)c(=O)n3C(C)C)CC2)c1 | 3.5 µM (active)
27 | C[C@H]1CNC(=O)c2cnn3ccc(nc23)N[C@H](C)c2cc(F)ccc2O1 [REPOTRECTINIB] | 3.7 µM (active)
28 | CC(C)N(CCNS(=O)(=O)c1ccc(-n2ncc(Cl)c(Cl)c2=O)cc1)C(C)C | 1.3 µM (active)
29 | O=C(Nc1cc(Oc2cc(F)c(NC(=O)C3(C(=O)Nc4ccc(F)cc4)CC3)cc2F)ccn1)C1CC1 [ALTIRATINIB] | 0.2 µM (active)
30 | CC(=O)Nc1nc(C)c(-c2ccc(Cl)c(S(=O)(=O)NCCO)c2)s1 | 4 µM (active)
31 | CCN(CC)CCCNC(=O)C1CCCN(c2ncc(-c3ccc(F)cc3)cn2)C1 (stereo unspecified) | 10.9 µM (active)
32 | CCNC(=O)C[C@@H]1N=C(c2ccc(Cl)cc2)c2cc(OC)ccc2-n2c(C)nnc21 [MOLIBRESIB] | 2.6 µM (active)
33 | CCCCN[C@H]1CS(=O)(=O)C[C@@H]1S(=O)(=O)c1ccc(Cl)cc1 | 9.3 µM (active)
34 | CN(CC(=O)N(Cc1ccc(C2CCCCC2)cc1)c1ccc(C(=O)O)cc1)S(=O)(=O)c1c(F)c(F)c(F)c(F)c1F | 3.4 µM (active)
35 | CN1CCN([C@H]2CC[C@H](n3cc(-c4ccc(Oc5ccccc5)cc4)c4c(N)ncnc43)CC2)CC1 | 1.6 µM (active)
36 | NC(=O)c1c(NC(=O)Cn2ncc(Cl)c(Cl)c2=O)sc2c1CCC2 | 1.9 µM (active)
37 | Cc1csc(NC(=O)CC[C@@H]2NC(=O)N(CCc3cccc(F)c3)C2=O)n1 | 8.9 µM (active)
38 | CN(C)CC1CCN(Cc2[nH]c3ccccc3c2Cl)C1 (stereo unspecified) | 5.8 µM (active)
39 | CNc1c(Cl)ncnc1NCc1cccc(Cn2cccn2)c1 | 1.4 µM (active)
40 | NC(=O)Nc1sc(-c2ccccc2)cc1C(N)=O | 7.9 µM (active)
41 | COc1cc(OC)cc(C(=O)NCc2nc3ncc(Br)cc3[nH]2)c1 | 3.7 µM (active)
42 | Cc1ccc(C(=O)N(CCCN)[C@@H](c2nc3cc(Cl)ccc3c(=O)n2Cc2ccccc2)C(C)C)cc1 [ISPINESIB] | 5.5 µM (active)
43 | Cc1ccccc1C[C@H](C)NCCN1CCC(N(C)C)CC1 | 13.7 µM (inactive)
44 | O=C(CCn1sc2ccccc2c1=O)NCCc1c[nH]c2ccccc12 | 5 µM (active)
45 | CC[n+]1c(/C=C2/C=CN(C)c3ccccc32)ccc2ccccc21 | 2.3 µM (active)
46 | O=C1CCc2ccc(OCCCCN3CCN(c4cccc(Cl)c4Cl)CC3)cc2N1 [ARIPIPRAZOLE] | 25.6 µM (inactive)

Row | SMILES | CC50
47 | Cc1nc(-c2ccccn2)sc1C(=O)Nc1ccccc1O | 2.8 µM (active)
48 | CNc1nc(N2CCCO[C@@H](CN)C2)nc2ccccc12 | 6.4 µM (active)
49 | NCC(c1ccc(Cl)cc1)C1CCCC1 (stereo unspecified) | 8 µM (active)
50 | CC[C@H](C)C(=O)O[C@H]1CCC=C2C=C[C@H](C)[C@H](CC[C@@H]3C[C@@H](O)CC(=O)O3)[C@H]21 [MEVASTATIN] | 33.3 µM (inactive)
51 | CCn1c(=O)c(C)nc2cc(C(=O)N3CCN(Cc4ccc(OC)cc4)CC3)ccc21 | 7.3 µM (active)
52 | CN(C)c1ccnc(CNC(=O)Nc2ncc(C(F)(F)F)s2)c1 | 0.6 µM (active)
53 | O=C(/C=C/c1ccc2ccccc2n1)c1ccncc1 | 1.1 µM (active)
54 | N#Cc1ccnc(Nc2cc(C3CCN(C4COC4)CC3)cc(N3CCC(F)(F)C3)n2)c1 | 1.9 µM (active)
55 | COc1ccc(NC(=O)Nc2ccc3c(c2)N(S(C)(=O)=O)CC3)cc1Cl | 10.5 µM (inactive)
56 | C=CC(=O)Nc1ccc2ncnc(Nc3ccc(OCc4cccc(F)c4)c(Cl)c3)c2c1 | 7.7 µM (active)
57 | CN(C)CCNC(=O)c1ccc2c(c1)n(Cc1cccc(F)c1)c(=O)c1ccnn12 | 12.7 µM (active)
58 | CCOC(=O)C(C)Oc1cccc2c(=O)n(CC(=O)Nc3ccc(OC)cc3)ccc12 (stereo unspecified) | 15.4 µM (inactive)
59 | COc1ccc(NC(=O)Cn2sc3ccccc3c2=O)cc1OC | 12.2 µM (active)
60 | O=C(CC1NCCCC1O)Cn1cnc2cc(Br)c(Cl)cc2c1=O (stereo unspecified) [HALOFUGINONE] | 0.1 µM (active)
61 | C#Cc1cccc(Nc2ncnc3cc(OCCOC)c(OCCOC)cc23)c1 [ERLOTINIB HYDROCHLORIDE] | 3.4 µM (inactive)
62 | CNC(=O)c1cc(Oc2ccc(NC(=O)Nc3ccc(Cl)c(C(F)(F)F)c3)c(F)c2)ccn1 [REGORAFENIB] | 1.7 µM (active)
63 | COCCNCc1ccc(-c2cc3nccc(Oc4ccc(NC(=O)C5(C(=O)Nc6ccc(F)cc6)CC5)cc4F)c3s2)nc1 [SITRAVATINIB] | 4.6 µM (active)
64 | COc1cc2c(cc1C(=O)Nc1ccccc1F)OCCCO2 | 13.8 µM (inactive)
65 | c1cc2c(cc1-c1ccc3c(n1)CCCN3)CCN2 | 13.5 µM (inactive)
66 | O=C(N[C@H]1CN2CCC1CC2)c1cc2cccc(Cl)c2s1 | 5.9 µM (active)
67 | Cc1cc(C(=O)Nc2nc3cccc(Cl)c3n2[C@@H]2CCCCN(C(=O)/C=C/CN(C)C)C2)ccn1 [NAZARTINIB] | 6.4 µM (active)
68 | O=C(NCCO)c1cccc(-c2cc(Nc3ccc(OC(F)(F)F)cc3)ncn2)c1 | 19.4 µM (inactive)
69 | COCCNc1ncnc2scc(-c3ccccc3)c12 | 8.6 µM (active)

Row | SMILES | CC50
70 | Cc1c(C(=O)Nc2cccc(C(F)(F)F)c2)cc(-c2ccccc2)n1CCCN1CCOCC1 | 13.9 µM (inactive)
71 | Cc1cc2c(C(C)C)c(O)c(O)c(C=O)c2c(O)c1-c1c(C)cc2c(C(C)C)c(O)c(O)c(C=O)c2c1O [GOSSYPOL] | 6.4 µM (active)
72 | CCCCOc1cccc(C(=O)Nc2nc3c(s2)CN(C)CC3)c1 | 7.9 µM (active)
73 | CN1C/C=C\CCOc2cccc(c2)-c2ccnc(n2)Nc2cccc(c2)C1 | < 0.1 µM (active)
74 | CCOC(=O)c1cnn(-c2ccc(NC(=O)C(Cl)=C(Cl)Cl)cc2)c1C(F)(F)F | 1 µM (active)
75 | O=C(O)c1ccc2c(c1)nc(Nc1cccc(Cl)c1)c1ccncc12 | 5 µM (active)
76 | c1ccc(-n2ccc(CNc3ncnc4c3ncn4C3CC3)n2)cc1 | 9.8 µM (active)
77 | CN(C)/C=C/C=C/C=C/C1=[N+](C)c2ccccc2C1(C)C | 10.3 µM (active)
78 | Cc1ccc(-c2cn3nc(N4CCC(C(=O)NCCCN5CCOCC5)CC4)sc3n2)cc1 | 5.1 µM (active)
79 | Cn1c(=O)oc2cc(S(=O)(=O)Nc3cccc4cccnc34)ccc21 | 16.7 µM (active)
80 | Fc1cccc(OC2CCN(C[C@H]3[C@@H]4CNC[C@@H]43)CC2)c1 | 7.9 µM (active)
81 | O=C(Nc1nc(-c2cccnc2)cs1)c1ccccn1 | 11.6 µM (active)
82 | COc1cc(C)c(Sc2cnc(NC(=O)c3ccc(CNC(C)C(C)(C)C)cc3)s2)cc1C(=O)N1CCN(C(C)=O)CC1 (stereo unspecified) | 7.5 µM (active)
83 | COc1cc2nc(N3CCCN(C)CC3)nc(NC3CCN(Cc4ccccc4)CC3)c2cc1OC | 0.9 µM (active)
84 | CN(C)Cc1cccc(N/C(=C2\C(=O)Nc3cc(C(=O)N(C)C)ccc32)c2ccccc2)c1 | 10 µM (active)
85 | COc1ncccc1NC(=O)c1n[nH]c2ccccc12 | 0.1 µM (active)
86 | COc1ccc(N2C(=O)/C(=C\c3ccc(O)c(Br)c3)SC2=S)cc1 | 10.3 µM (active)
87 | CNc1nc(Nc2cccc(NC(C)=O)c2)nc2ccccc12 | 5.2 µM (active)
88 | COc1cc([C@@H]2c3cc4c(cc3[C@@H](O[C@@H]3O[C@@H]5CO[C@@H](c6cccs6)O[C@H]5[C@H](O)[C@H]3O)[C@H]3COC(=O)[C@H]23)OCO4)cc(OC)c1O [TENIPOSIDE] | 6.5 µM (active)
89 | O=C1C(=O)c2cc([N+](=O)[O-])ccc2-c2ccccc21 | 1.5 µM (active)
90 | Cc1nc2c(=O)n(C)c(=O)nc-2n(C)n1 | 0.7 µM (active)
91 | COc1cc(C(=O)NC2CCN(C)CC2)c(F)cc1Nc1ncc2c(n1)N(C1CCCC1)CC(F)(F)C(=O)N2C | 4.1 µM (active)
